This is an account of results in patent publication US6087509A, “1-Imidazolidinyl-phenyls” (Hoechst Marion Roussel, priority 1995, dated 2000).

Experiment [1] deals with costovertebral gland of the hamster. Nature of the experiment: Reducing effect on the costo-vertebral gland of the hamster (topical antiandrogen activity). The experiment is classed as in vivo. The settings on record: topical on right-hand C.V.G., 3 weeks (14 administrations), male hamsters, reduction in surface area. Here is the method:
2) Determination of the Reducing Effect on the Costo-vertebral Gland of the Hamster
The local activity (topical) of an antiandrogen is determined by the reduction which it brings about in the surface area of the costovertebral gland of the hamster (hereafter C.V.G.), an androgen-dependent organ situated on the flanks of the animal.
The animals are male hamsters weighing about 140 g, 14 weeks old and originating from the Charles River breed (USA), they are subjected to a long photoperiod (16 hours of light, 8 hours of darkness). The animals are treated every day, except for the weekend, for 3 weeks (14 administrations). The product to be tested is applied, by topical route, on the right-hand C.V.G., the left-hand one serving as the control. The surface of the gland has been shaved beforehand. The animals are sacrificed by bleeding the carotid artery 24 hours after the last treatment. The C.V.G.'s are removed, measured and weighed. The local activity of a product is determined by the % of reduction in the surface area of the C.V.G. which it induces in comparison with the 1st day of the experiment and compared to the animals treated with solvent only.

The subject of experiment [2] is prostate in an intact male rat. Nature of the experiment: Reducing effect of the weight of the prostate in an intact male rat (systemic antiandrogen activity). The experiment is classed as in vivo. The settings on record: day 0 to 4 and day 7 to 10, intact male Sprague Dawley rats, compared to solvent only. Here is the method:
3) Determination of the Reducing Effect of the Weight of the Prostate in an Intact Male Rat
The systemic activity of an antiandrogen is determined by the reduction in the weight of the prostate which it brings about in an intact animal.
The animals used are male rats of the Sprague Dawley strain weighing about 200 g, 7 weeks old, originating from the Iffa Credo breed (France). The experiment is carried out over two weeks, except for the weekend.
The product can be administered by oral, sub-cutaneous or percutaneous route.
The solvents used are then: by oral route: 0.5% aqueous solution of methylcellulose under a volume of 5 ml/kg, by sub-cutaneous route: wheatgerm oil in 10% ethanol under a volume of 0.2 ml/kg, and by percutaneous route: ethanol under a volume of 50 ul on previously-shaved skin.
The treatment is carried out from day 0 to day 4 then (after the weekend) from day 7 to day 10. The animals are sacrificed the day after the last treatment by bleeding the carotid artery, the prostates are removed and fixed in demineralized water containing 10% formol for 72 hours. They are then dissected and weighed.

The target of another experiment is T1, androgen receptor (Rattus norvegicus, UniProt P15207).
T1 construct: from tissue; host or cells: prostate cytosol of castrated male Sprague Dawley rats
T1 sequence (P15207 1-902): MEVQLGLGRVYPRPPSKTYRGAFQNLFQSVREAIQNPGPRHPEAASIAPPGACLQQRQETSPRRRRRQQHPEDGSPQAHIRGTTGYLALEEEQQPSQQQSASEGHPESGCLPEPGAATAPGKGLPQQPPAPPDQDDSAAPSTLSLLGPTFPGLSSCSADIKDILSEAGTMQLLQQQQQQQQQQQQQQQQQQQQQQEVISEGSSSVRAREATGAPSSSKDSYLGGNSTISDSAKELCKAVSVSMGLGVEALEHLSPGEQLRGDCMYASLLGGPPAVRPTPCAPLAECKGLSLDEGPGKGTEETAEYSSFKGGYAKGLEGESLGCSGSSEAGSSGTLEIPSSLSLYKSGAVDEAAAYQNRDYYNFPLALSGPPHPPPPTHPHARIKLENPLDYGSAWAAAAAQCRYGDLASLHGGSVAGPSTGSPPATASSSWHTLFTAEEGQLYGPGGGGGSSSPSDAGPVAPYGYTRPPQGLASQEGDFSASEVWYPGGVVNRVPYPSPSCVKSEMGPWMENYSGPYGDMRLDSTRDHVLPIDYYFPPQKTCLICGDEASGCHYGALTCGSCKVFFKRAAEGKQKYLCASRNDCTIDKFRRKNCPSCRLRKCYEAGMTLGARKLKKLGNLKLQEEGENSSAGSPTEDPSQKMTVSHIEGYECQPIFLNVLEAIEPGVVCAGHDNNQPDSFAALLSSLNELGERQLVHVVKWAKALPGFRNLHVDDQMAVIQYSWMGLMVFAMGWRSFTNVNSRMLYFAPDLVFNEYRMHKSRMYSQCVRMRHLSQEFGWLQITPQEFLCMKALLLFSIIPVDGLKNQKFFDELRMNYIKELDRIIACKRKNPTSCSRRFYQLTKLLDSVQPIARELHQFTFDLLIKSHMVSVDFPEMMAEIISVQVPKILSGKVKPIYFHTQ
Nature of the experiment: Affinity for the androgen receptor (relative bond affinity, tritiated testosterone displacement in rat prostate cytosol). The experiment is classed as binding. Here is the method:
The straight line of the equation I50 =(B/Tmax+B/Tmin)/2 is determined.

The structures appear in SMILES notation.

As for `N#Cc1ccc(N2C(=O)N(CCCCO)C3(CCCCC3)C2=O)cc1C(F)(F)F` [Example 9, 4-[2,4-dioxo-1-(4-hydroxybutyl)-1,3-diazaspiro-[4.5]decan-3-yl]-2-(trifluoromethyl)-benzonitrile], the “% CVG reduction with 3 μg/jour” value in experiment [1] is listed as -25%.

For the molecule `CC1(C)C(=O)N(c2ccc(C#N)c(C(F)(F)F)c2)C(=O)N1CC#CCO` [Example 8, 4-(3-(4-hydroxy-2-butyn-1-yl)-4,4-dimethyl-2,5-dione-1-imidazolidinyl)-2-(trifluoromethyl)-benzonitrile], in experiment [2], the “% reduction in the prostate weight with 3 mg/kg P.O.” value (“% reduction … with 3 mg/kg P.O.” for short) is recorded as -35%.

In the case of `N#Cc1ccc(N2C(=O)N(CCF)C(CF)(CF)C2=O)cc1C(F)(F)F` [Example 1, 4-(4,4-bis(fluoromethyl)-2,5-dioxo-3-(2-fluoroethyl)-1-imidazolidinyl)-2-(trifluoromethyl)-benzonitrile], on androgen receptor, the “RBA: Incubation 24 hours” value is given as 42. In experiment [1], the “% CVG reduction with 3 μg/jour” value was -32%. Moreover, the “% reduction … with 3 mg/kg P.O.” value in experiment [2] was -27%.

`CCN1C(=O)N(c2ccc(C#N)c(C(F)(F)F)c2)C(=O)C1(CF)CF` [Example 3, 4-(2,5-dioxo-4,4-bis(fluoromethyl)-3-ethyl-1-imidazolidinyl)-2-(trifluoromethyl)-benzonitrile]: on androgen receptor, the “RBA: Incubation 24 hours” value is given as 43. Besides, the “% CVG reduction with 3 μg/jour” value in experiment [1] was -33%. Further, the “% reduction … with 3 mg/kg P.O.” value in experiment [2] is on record as -20%.
